{"source": "patent US9232796B2", "about": "“Herbicidal compositions comprising 4-amino-3-chloro-5-fluoro-6-(4-chloro-2-fluoro-3-methoxyphenyl) pyridine-2-carboxylic acid or a derivative thereof and acetyl-CoA carboxylase (ACCase) inhibitors” (DOW AGROSCIENCES LLC, priority 2012, dated 2016)", "key": {"IPOHE": {"test_system": "IPOHE", "experiment": "Example I postemergence foliar-applied, greenhouse, direct seeded rice weeds", "assay_type": "in vivo, Ipomoea hederacea Jacq.", "method_in_brief": "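Greenhouse plants in loam/sandy loam–grit soil (80:20), grown 8-22 days (29/26 °C, 14 hr photoperiod) to first–fourth true leaf, sprayed postemergence at 187 L/ha with 1.25% (v/v) crop oil concentrate, alone or in mixtures. Visual injury scored 0–100% versus untreated plants after about 3 weeks; mixture expectations by Colby's equation.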"}, "LEFCH": {"test_system": "LEFCH", "experiment": "Example II in-water applied, greenhouse, transplanted paddy rice weeds", "assay_type": "in vivo, Leptochloa chinensis (L.) Nees", "description": "Weed seeds or nutlets of the desired test plant species were planted in puddled soil (mud) prepared by mixing a shredded, non-sterilized mineral soil (50.5 percent silt, 25.5 percent clay, and 24 percent sand, with a pH of about 7.6 and an organic matter content of about 2.9 percent) and water at a 1:1 volumetric ratio. The prepared mud was dispensed in 365 mL aliquots into 16-ounce (oz.) non-perforated plastic pots with a surface area of 86.59 square centimeters (cm^2) leaving a headspace of 3 centimeters (cm) in each pot. Mud was allowed to dry overnight prior to planting or transplanting. Rice seeds were planted in Sun Gro MetroMix® 306 planting mixture, which typically has a pH of 6.0 to 6.8 and an organic matter content of about 30 percent, in plastic plug trays. Seedlings at the second or third leaf stage of growth were transplanted into 860 mL of mud contained in 32-oz. non-perforated plastic pots with a surface area of 86.59 cm^2 4 days prior to herbicide application. The paddy was created by filling the headspace of the pots with 2.5 to 3 cm of water. […] The plants were grown for 4-22 days in a greenhouse with an approximate 14 hr. photoperiod which was maintained at about 29° C. during the day and 26° C. during the night. Nutrients were added as Osmocote® (19:6:12, N:P:K+minor nutrients) at 2 g per 16-oz. pot and 4 g per 32-oz. pot. Water was added on a regular basis to maintain the paddy flood, and supplemental lighting was provided with overhead metal halide 1000-Watt lamps as necessary. The plants were employed for testing when they reached the first through fourth true leaf stage.\nTreatments consisted of the acid or esters of 4-amino-3-chloro-5-fluoro-6-(4-chloro-2-fluoro-3-methoxy-phenyl)pyridine-2-carboxylic acid (compound A) each formulated as an SC (suspension concentrate) and various herbicidal components alone and in combination.\nFor formulated compounds, a measured amount was placed in an individual 100 or 200 mL glass vial and was dissolved in a volume of 1.25% (v/v) Agri-Dex® crop oil concentrate to obtain application solutions.\n(§1) Applications were made by injecting with a pipetter appropriate amounts of the application solutions, individually and sequentially, into the aqueous layer of the paddy. Control plants were treated in the same manner with the solvent blank. Applications were made so that all treated plant material received the same concentrations of acetone and crop oil concentrate.\n(§2) The treated plants and control plants were placed in a greenhouse as described above and water was added as needed to maintain a paddy flood. After approximately 3 weeks the condition of the test plants as compared with that of the untreated plants was determined visually and scored on a scale of 0 to 100 percent where 0 corresponds to no injury or growth inhibition and 100 corresponds to complete kill.\n(§3) Colby's equation was used to determine the herbicidal effects expected from the mixtures (Colby, S. R. 1967. Calculation of the synergistic and antagonistic response of herbicide combinations. Weeds 15:20-22.).\n(§4) The following equation was used to calculate the expected activity of mixtures containing two active ingredients, A and B: Expected=A+B−(A×B/100)"}, "ECHCG": {"test_system": "ECHCG", "experiment": "Example II in-water applied, greenhouse, transplanted paddy rice weeds", "assay_type": "in vivo, Echinochloa crusgalli (L.) Beauv.", "description": "as §1, §2, §3, §4"}}, "note": "Where “and” joins values, the source holds several entries; their conditions need not be identical. Equal values may be shown once.", "data": [{"smiles": "C[C@@H](Oc1ccc(Oc2nc3ccc(Cl)cc3o2)cc1)C(=O)N(C)c1ccccc1F", "note": "[Metamifop, (2R)-2-[4-[(6-chloro-2-benzoxazolyl)oxy]phenoxy]-N-(2-fluorophenyl)-N-methylpropanamide]", "values": [{"measurement": "Visual Weed Control (%) - 22 DAA IPOHE Obs", "setting": "IPOHE; 9.38 gai/ha", "value": 0, "unit": "%"}, {"measurement": "Visual Weed Control (%) - 22 DAA IPOHE Obs", "setting": "IPOHE; 18.75 gai/ha", "value": 0, "unit": "%"}, {"measurement": "Visual Weed Control (%) - 22 DAA IPOHE Obs", "setting": "IPOHE; 37.5 gai/ha", "value": 0, "unit": "%"}, {"measurement": "Visual Weed Control (%) - 24 DAA IPOHE Obs", "setting": "IPOHE; 150 gai/ha", "value": 0, "unit": "%"}]}, {"smiles": "CCC/C(=N\\OCC(C)Oc1ccc(Cl)cc1)C1=C(O)CC(C2CCCSC2)CC1=O", "note": "(stereo not shown) [Profoxydim, 2-[1-[[2-(4-chlorophenoxy)propoxy]imino]butyl]-3-hydroxy-5-(tetrahydro-2H-thiopyran-3-yl)-2-cyclohexen-1-one, reference compound]", "values": [{"measurement": "Visual Weed Control (%) - 21 DAA LEFCH Obs", "setting": "LEFCH; in-water, 25 gai/ha", "value": 85, "unit": "%"}, {"measurement": "Visual Weed Control (%) - 22 DAA ECHCG Obs", "setting": "ECHCG; 50 gai/ha", "value": 30, "unit": "%"}]}, {"smiles": "COc1c(Cl)ccc(-c2nc(C(=O)OCc3ccccc3)c(Cl)c(N)c2F)c1F", "note": "[Compound A Benzyl Ester, benzyl ester of 4-amino-3-chloro-5-fluoro-6-(4-chloro-2-fluoro-3-methoxy-phenyl)pyridine-2-carboxylic acid]", "values": [{"measurement": "Visual Weed Control (%) - 21 DAA ECHCG Obs", "setting": "ECHCG; 4.38 gae/ha", "value": 15, "unit": "%"}, {"measurement": "Visual Weed Control (%) - 22 DAA ECHCG Obs", "setting": "ECHCG; 8 gae/ha", "value": 50, "unit": "%"}, {"measurement": "Visual Weed Control (%) - 22 DAA ECHCG Obs", "setting": "ECHCG; 16 gae/ha", "value": 60, "unit": "%"}, {"measurement": "Visual Weed Control (%) - 21 DAA ECHCG Obs", "setting": "ECHCG; 17.5 gae/ha", "value": 75, "unit": "%"}, {"measurement": "Visual Weed Control (%) - 22 DAA ECHCG Obs", "setting": "ECHCG; 32 gae/ha", "value": 99, "unit": "%"}, {"measurement": "Visual Weed Control (%) - 19 DAA IPOHE Obs", "setting": "IPOHE; 4.38 gae/ha", "value": 0, "unit": "%"}, {"measurement": "Visual Weed Control (%) - 19 DAA IPOHE Obs", "setting": "IPOHE; 8.75 gae/ha", "value": 0, "unit": "%"}, {"measurement": "Visual Weed Control (%) - 21 DAA IPOHE Obs", "setting": "IPOHE; 16 gae/ha", "value": 10, "unit": "%"}, {"measurement": "Visual Weed Control (%) - 21 DAA IPOHE Obs", "setting": "IPOHE; 32 gae/ha", "value": 25, "unit": "%"}, {"measurement": "Visual Weed Control (%) - 22 DAA IPOHE Obs", "setting": "IPOHE; 32 gae/ha", "value": 45, "unit": "%"}]}, {"smiles": "COc1c(Cl)ccc(-c2nc(C(=O)O)c(Cl)c(N)c2F)c1F", "note": "[Compound A Acid, 4-amino-3-chloro-6-(4-chloro-2-fluoro-3-methoxyphenyl)-5-fluoropyridine-2-carboxylic acid]", "values": [{"measurement": "Visual Weed Control (%) - 19 DAA LEFCH Obs", "setting": "LEFCH; 42.4 gae/ha in-water", "value": 10, "unit": "%"}, {"measurement": "Visual Weed Control (%) - 21 DAA LEFCH Obs", "setting": "LEFCH; in-water, 17.5 gae/ha", "value": 0, "unit": "%"}, {"measurement": "Visual Weed Control (%) - 21 DAA LEFCH Obs", "setting": "LEFCH; in-water, 35 gae/ha", "value": 20, "unit": "%"}, {"measurement": "Visual Weed Control (%) - 22 DAA ECHCG Obs", "setting": "ECHCG; 16 gae/ha", "value": 20, "unit": "%"}, {"measurement": "Visual Weed Control (%) - 22 DAA ECHCG Obs", "setting": "ECHCG; 32 gae/ha", "value": 25, "unit": "%"}, {"measurement": "Visual Weed Control (%) - 19 DAA IPOHE Obs", "setting": "IPOHE; 4.38 gae/ha", "value": 0, "unit": "%"}, {"measurement": "Visual Weed Control (%) - 20 DAA IPOHE Obs", "setting": "IPOHE; 4.38 gae/ha", "value": "10% and 0%"}, {"measurement": "Visual Weed Control (%) - 24 DAA IPOHE Obs", "setting": "IPOHE; 4.38 gae/ha", "value": 10, "unit": "%"}, {"measurement": "Visual Weed Control (%) - 19 DAA IPOHE Obs", "setting": "IPOHE; 8.75 gae/ha", "value": 10, "unit": "%"}, {"measurement": "Visual Weed Control (%) - 20 DAA IPOHE Obs", "setting": "IPOHE; 8.75 gae/ha", "value": "30% and 20%"}, {"measurement": "Visual Weed Control (%) - 24 DAA IPOHE Obs", "setting": "IPOHE; 8.75 gae/ha", "value": 10, "unit": "%"}, {"measurement": "Visual Weed Control (%) - 19 DAA IPOHE Obs", "setting": "IPOHE; 17.5 gae/ha", "value": 35, "unit": "%"}, {"measurement": "Visual Weed Control (%) - 20 DAA IPOHE Obs", "setting": "IPOHE; 17.5 gae/ha", "value": 40, "unit": "%"}, {"measurement": "Visual Weed Control (%) - 24 DAA IPOHE Obs", "setting": "IPOHE; 17.5 gae/ha", "value": 30, "unit": "%"}, {"measurement": "Visual Weed Control (%) - 20 DAA IPOHE Obs", "setting": "IPOHE; 19.4 gae/ha", "value": 15, "unit": "%"}]}, {"smiles": "CCCCOC(=O)[C@@H](C)Oc1ccc(Oc2ccc(C#N)cc2F)cc1", "note": "[Cyhalofop-butyl, butyl(2R)-2-[4-(4-cyano-2-fluorophenoxy)phenoxy]propanoate, reference compound]", "values": [{"measurement": "Visual Weed Control (%) - 19 DAA LEFCH Obs", "setting": "LEFCH; 180 gai/ha, in-water", "value": 75, "unit": "%"}, {"measurement": "Visual Weed Control (%) - 20 DAA IPOHE Obs", "setting": "IPOHE; 280 gai/ha", "value": 0, "unit": "%"}]}, {"smiles": "CCOC(=O)[C@@H](C)Oc1ccc(Oc2cnc3cc(Cl)ccc3n2)cc1", "note": "[Quizalofop-p-ethyl, ethyl(2R)-2-[4-[(6-chloro-2-quinoxalinyl)oxy]phenoxy]propanoate, reference compound]", "values": [{"measurement": "Visual Weed Control (%) - 21 DAA ECHCG Obs", "setting": "ECHCG; 15 gai/ha", "value": 50, "unit": "%"}, {"measurement": "Visual Weed Control (%) - 21 DAA ECHCG Obs", "setting": "ECHCG; 30 gai/ha", "value": 100, "unit": "%"}, {"measurement": "Visual Weed Control (%) - 22 DAA IPOHE Obs", "setting": "IPOHE; 1.88 gai/ha", "value": 0, "unit": "%"}, {"measurement": "Visual Weed Control (%) - 22 DAA IPOHE Obs", "setting": "IPOHE; 3.75 gai/ha", "value": 0, "unit": "%"}, {"measurement": "Visual Weed Control (%) - 22 DAA IPOHE Obs", "setting": "IPOHE; 7.5 gai/ha", "value": 0, "unit": "%"}, {"measurement": "Visual Weed Control (%) - 20 DAA IPOHE Obs", "setting": "IPOHE; 15 gai/ha", "value": 0, "unit": "%"}, {"measurement": "Visual Weed Control (%) - 20 DAA IPOHE Obs", "setting": "IPOHE; 30 gai/ha", "value": 0, "unit": "%"}]}]}
